Biological target: rat mGlu2 (Rattus norvegicus (Rat), UniProt P31421)
Test: mGlu2 Ca2+ flux assay
Format: cell-based
Details: for IC50: Gα15 HEK293 cells stably expressing rat mGlu2, glutamate EC80, >10,000 = no plateau, >30,000 = no measurable activity; for remaining activity at 30 µM / rat mGlu2 Glu max: amplitude of response in the presence of 30 μM test compound as percentage of maximal response to glutamate; for remaining activity at 30 µM: read-out: rat mGlu2 Glu max
Method: Gα15 HEK293 cells stably expressing rat mGlu2 were plated in black-walled, clear-bottomed, poly-D-lysine coated 384-well plates in 20 μL of assay medium (DMEM containing 10% dialyzed FBS, 20 mM HEPES, and 1 mM sodium pyruvate) at a density of 12K cells/well. The cells were grown overnight at 37° C. in the presence of 5% CO2. The next day, medium was removed and the cells incubated with 20 μL of 2.3 μM Fluo-4, AM prepared as a 2.3 mM stock in DMSO and mixed in a 1:1 ratio with 10% (w/v) pluronic acid F-127 and diluted in assay buffer (Hank's balanced salt solution, 20 mM HEPES, and 2.5 mM probenecid) for 45 minutes at 37° C. Dye was removed, 20 μL of assay buffer was added, and the plate was incubated for 5 minutes at room temperature.
Ca^2+ flux was measured using the Functional Drug Screening System (FDSS7000, Hamamatsu, Japan). After establishment of a fluorescence baseline for about 3 seconds, the compounds of the present invention were added to the cells, and the response in cells was measured. 2.3 minutes later an EC20 concentration of the mGlu2 receptor agonist glutamate was added to the cells, and the response of the cells was measured for 1.9 minutes; an EC80 concentration of agonist was added and readings taken for an additional 1.7 minutes. All test compounds were dissolved and diluted to a concentration of 10 mM in 100% DMSO. Compounds were then serially diluted 1:3 in DMSO into 10 point concentration response curves, transferred to daughter plates, and further diluted into assay buffer to a 2× stock. Calcium fluorescence measures were recorded as fold over basal fluorescence; raw data was then normalized to the maximal response to glutamate. Antagonism of the agonist response of the mGlu2 receptor in the present invention was observed as a decrease in response to nearly maximal concentrations of glutamate in the presence of compound compared to the response to glutamate in the absence of compound.
The raw data file containing all time points was used as the data source in the analysis template. This was saved by the FDSS as a tab-delimited text file. Data were normalized using a static ratio function (F/F0) for each measurement of the total 360 values per well divided by each well's initial value. Data were then reduced to peak amplitudes (Max−Initial Min) using a time range that starts approximately 3 seconds prior to the glutamate EC80 addition and continues for approximately 90 seconds. This is sufficient time to capture the peak amplitude of the cellular calcium response. Individual amplitudes were expressed as % ECMax by multiplying each amplitude by 100 and then dividing the product by the mean of the amplitudes derived from the glutamate ECMax-treated wells. IC50 values for test compounds were generated by fitting the normalized values versus the log of the test compound concentration (in mol/L) using a 4 parameter logistic equation where none of the parameters were fixed. Each of the three values collected at each concentration of test compound were weighted evenly.
For NAMs, potency (IC50) and maximum response (% Glu Max), i.e. the amplitude of response in the presence of 30 μM test compound as a percentage of the maximal response to glutamate, are reported. […] Compounds with no measurable activity are designated as “>30,000 nM” since the top concentration of compound tested in the assay is 30 μM.

Chain of rat mGlu2 (P31421 19-872): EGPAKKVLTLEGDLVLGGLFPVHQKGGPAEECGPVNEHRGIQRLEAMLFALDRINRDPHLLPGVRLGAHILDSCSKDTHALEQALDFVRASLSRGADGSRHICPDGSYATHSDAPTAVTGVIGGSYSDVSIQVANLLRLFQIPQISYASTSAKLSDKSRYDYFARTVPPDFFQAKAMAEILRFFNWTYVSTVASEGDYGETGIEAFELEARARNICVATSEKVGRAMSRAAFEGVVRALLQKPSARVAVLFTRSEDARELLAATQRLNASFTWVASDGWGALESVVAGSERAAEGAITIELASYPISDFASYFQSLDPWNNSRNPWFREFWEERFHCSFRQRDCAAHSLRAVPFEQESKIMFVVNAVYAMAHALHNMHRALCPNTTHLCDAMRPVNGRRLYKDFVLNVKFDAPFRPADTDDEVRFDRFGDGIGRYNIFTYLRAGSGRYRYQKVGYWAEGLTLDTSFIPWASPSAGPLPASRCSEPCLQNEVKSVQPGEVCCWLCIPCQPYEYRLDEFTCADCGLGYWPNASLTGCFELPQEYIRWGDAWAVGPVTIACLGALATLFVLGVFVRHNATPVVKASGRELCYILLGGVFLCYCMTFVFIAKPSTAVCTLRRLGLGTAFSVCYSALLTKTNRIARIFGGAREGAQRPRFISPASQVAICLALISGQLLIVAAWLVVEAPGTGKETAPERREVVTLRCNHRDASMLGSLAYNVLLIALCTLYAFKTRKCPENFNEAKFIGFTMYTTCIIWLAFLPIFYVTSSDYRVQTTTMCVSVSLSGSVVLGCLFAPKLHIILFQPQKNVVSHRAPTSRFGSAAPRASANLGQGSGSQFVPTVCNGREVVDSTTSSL

Compound	IC50	remaining activity at 30 µM	NAM designation (concentration-dependent decrease in the glutamate EC80 response)	rat mGlu2 Glu max
Cn1ccc(COc2cnc(C(N)=O)cc2-c2ccc(F)cc2)n1 [Compound 52, 4-(4-fluorophenyl)-5-((1-methyl-1H-pyrazol-3-yl)methoxy)picolinamide]	0.066 µM	0.93%	–	–
Cc1cc(COc2cnc(C(N)=O)cc2-c2cnn(C)c2)ccn1 [Compound 89, 4-(1-methyl-1H-pyrazol-4-yl)-5-((2-methylpyridin-4-yl)methoxy)picolinamide]	> 10 µM	30.7%	–	–
N#Cc1cncc(OCCOc2cnc(C(N)=O)cc2-c2ccc(F)cc2)c1 [Compound 157, 5-(2-((5-cyanopyridin-3-yl)oxy)ethoxy)-4-(4-fluorophenyl)picolinamide]	0.691 µM	4.33%	–	–
Cc1ccc(COc2cnc(C(N)=O)cc2-c2cnn(C)c2)cn1 [Compound 85, 4-(1-methyl-1H-pyrazol-4-yl)-5-((6-methylpyridin-3-yl)methoxy)picolinamide]	> 10 µM	46.7%	–	–
NC(=O)c1cc(-c2ccc(F)cc2)c(OCc2cccnc2)cn1 [Compound 38, 4-(4-fluorophenyl)-5-(pyridin-3-ylmethoxy)picolinamide]	0.507 ± 0.123 µM	5.84 ± 1.16%	–	–
Cc1ccc(OC2CN(c3cnc(C(N)=O)cc3-c3ccc(F)cc3)C2)cn1 [Compound 142, 4-(4-fluorophenyl)-5-(3-((6-methylpyridin-3-yl)oxy)azetidin-1-yl)picolinamide]	1.28 µM	2.35%	–	–
COc1ccc(COc2cnc(C(N)=O)cc2-c2ccc(F)cc2)cn1 [Compound 42, 4-(4-fluorophenyl)-5-((6-methoxypyridin-3-yl)methoxy)picolinamide]	0.266 µM	2.2%	–	–
N#Cc1cc(-c2ccc(F)cc2)c(OCCOCc2ccccc2)cn1 [Compound 29, 5-(2-(benzyloxy)ethoxy)-4-(4-fluorophenyl)picolinonitrile]	4.25 µM	65.2%	(Partial NAM)	–
Cc1ccc(OCCOc2cnc(C(N)=O)cc2-c2ccc(F)cc2)cn1 [Compound 114]	0.738 µM	–	–	1.80%
NC(=O)c1cc(-c2ccc(F)cc2)c(N2CCC(Oc3ccnc(C(F)(F)F)c3)C2)cn1 (stereo not shown) [Compound 144, 4-(4-fluorophenyl)-5-(3-((2-(trifluoromethyl)pyridin-4-yl)oxy)pyrrolidin-1-yl)picolinamide]	7.45 µM	1.28%	–	–
NC(=O)c1cc(-c2ccc(F)cc2)c(OCCCOc2ccc(C(F)(F)F)nc2)cn1 [Compound 126]	2.94 µM	–	–	5.52%
NC(=O)c1cc(-c2ccc(F)cc2)c(OCc2ccc(Br)cc2)cn1 [Compound 33, 5-((4-bromobenzyl)oxy)-4-(4-fluorophenyl)picolinamide]	1.69 µM	2.29%	–	–
NC(=O)c1cc(-c2ccc(F)cc2)c(OCc2cc(F)cc(Br)c2)cn1 [Compound 37, 5-((3-bromo-5-fluorobenzyl)oxy)-4-(4-fluorophenyl)picolinamide]	1.47 µM	3.54%	–	–
N#Cc1cccc(COc2cnc(C(N)=O)cc2-c2ccc(F)cc2)c1F [Compound 149, 5-((3-cyano-2-fluorobenzyl)oxy)-4-(4-fluorophenyl)picolinamide]	0.254 µM	1.66%	–	–
CC(Oc1cnc(C(N)=O)cc1-c1ccc(F)cc1)c1cccnc1 (stereo not shown) [Compound 47, 4-(4-fluorophenyl)-5-(1-(pyridin-3-yl)ethoxy)picolinamide]	2.71 µM	0.41%	–	–
CC(CNc1cnc(C(N)=O)cc1-c1ccc(F)cc1)N1CCOCC1 (stereo not shown) [Compound 135, 4-(4-fluorophenyl)-5-((2-morpholinopropyl)amino)picolinamide]	5.7 µM	1.19%	–	–

Compound	IC50	remaining activity at 30 µM	NAM designation (concentration-dependent decrease in the glutamate EC80 response)	rat mGlu2 Glu max
N#Cc1ccccc1COc1cnc(C(N)=O)cc1-c1ccc(F)cc1 [Compound 150, 5-((2-cyanobenzyl)oxy)-4-(4-fluorophenyl)picolinamide]	0.098 µM	1.14%	–	–
NC(=O)c1cc(-c2ccc(F)cc2)c(OCc2ccc(Cl)nc2)cn1 [Compound 8, 5-((6-chloropyridin-3-yl)methoxy)-4-(4-fluorophenyl)picolinamide]	0.429 µM	2%	–	–
N#Cc1cc(-c2ccc(F)cc2)c(OC2CCN(c3ccnc(C(F)(F)F)c3)C2)cn1 (stereo not shown) [Compound 27, 4-(4-fluorophenyl)-5-((1-(2-(trifluoromethyl)pyridin-4-yl)pyrrolidin-3-yl)oxy)picolinonitrile]	> 30 µM	–	–	–
N#Cc1cc(-c2ccc(F)cc2)c(OC2CN(c3ccnc(C(F)(F)F)c3)C2)cn1 [Compound 28, 4-(4-fluorophenyl)-5-((1-(2-(trifluoromethyl)pyridin-4-yl)azetidin-3-yl)oxy)picolinonitrile]	> 30 µM	–	–	–
CC(COc1cnc(C(N)=O)cc1-c1ccc(F)cc1)Oc1cccnc1 (stereo not shown) [Compound 123, 4-(4-fluorophenyl)-5-(2-(pyridin-3-yloxy)propoxy)picolinamide]	1.51 µM	0.37%	–	–
Cc1ccc(OCCCOc2cnc(C#N)cc2-c2ccc(F)cc2)cn1 [Compound 68, 4-(4-fluorophenyl)-5-(3-((6-methylpyridin-3-yl)oxy)propoxy)picolinonitrile]	> 10 µM	29%	–	–
CC(CNc1cnc(C#N)cc1-c1ccc(F)cc1)N1CCOCC1 (stereo not shown) [Compound 5, 4-(4-fluorophenyl)-5-((2-morpholinopropyl)amino)picolinonitrile]	> 10 µM	36.2%	–	–
NC(=O)c1cc(-c2ccc(F)cc2)c(COc2ccnc(C(F)(F)F)c2)cn1 [Compound 93, 4-(4-fluorophenyl)-5-(((2-(trifluoromethyl)pyridin-4-yl)oxy)methyl)picolinamide]	0.477 µM	0.38%	–	–
N#Cc1cc(-c2ccc(F)cc2)c(OCc2ccnc(C(F)(F)F)c2)cn1 [Compound 20, 4-(4-fluorophenyl)-5-((2-(trifluoromethyl)pyridin-4-yl)methoxy)picolinonitrile]	> 10 µM	37.9%	–	–
COc1cc(COc2cnc(C(N)=O)cc2-c2ccc(F)cc2)ccn1 [Compound 46, 4-(4-fluorophenyl)-5-((2-methoxypyridin-4-yl)methoxy)picolinamide]	0.204 µM	2.17%	–	–
N#Cc1cc(-c2ccc(F)cc2)c(NCCN2CCOCC2)cn1 [Compound 2, 4-(4-fluorophenyl)-5-((2-morpholinoethyl)amino)picolinonitrile]	> 10 µM	47.5%	–	–
N#Cc1cc(-c2ccc(F)cc2)c(OCCCOc2ccnc(C(F)(F)F)c2)cn1 [Compound 67, 4-(4-fluorophenyl)-5-(3-((2-(trifluoromethyl)pyridin-4-yl)oxy)propoxy)picolinonitrile]	> 30 µM	–	–	–
NC(=O)c1cc(-c2ccc(F)cc2)c(OCc2ccc3nccn3c2)cn1 [Compound 50, 4-(4-fluorophenyl)-5-(imidazo[1,2-a]pyridin-6-ylmethoxy)picolinamide]	0.129 µM	1.41%	–	–
N#Cc1cc(-c2ccc(F)cc2)c(OCc2ccc3nccn3c2)cn1 [Compound 21, 4-(4-fluorophenyl)-5-(imidazo[1,2-a]pyridin-6-ylmethoxy)picolinonitrile]	3.49 µM	16.1%	–	–
N#Cc1cc(-c2ccc(F)cc2)c(OCCN2CCOCC2)cn1 [Compound 24, 4-(4-fluorophenyl)-5-(2-morpholinoethoxy)picolinonitrile]	> 30 µM	–	–	–
Cc1cc(OCCOc2cnc(C(N)=O)cc2-c2ccc(F)cc2)ccn1 [Compound 118, 4-(4-fluorophenyl)-5-(2-((2-methylpyridin-4-yl)oxy)ethoxy)picolinamide]	0.41 µM	1.16%	–	–

Source: patent US10538491B2, “4,5-substituted picolinamide and picolinonitrile metabotropic glutamate receptor 2 negative allosteric modulators” (Vanderbilt University, priority 2015, dated 2020)
